≈ marks a conversion by molar mass, not a printed value.
Key:
[1] = target: T1, Nucleotide-binding oligomerization domain-containing protein 1 (Mus musculus) (UniProt Q8BHB0); test: Antagonist activity at mouse NOD1 expressed in HEK-Blue cells assessed as decrease in SEAP secretion at 5 uM incubated for 3 hrs followed by C12-iE-DAP stimulation for 20 hrs by spectrophotometry relative to control; format: cell-based
T1 sequence (whole entry): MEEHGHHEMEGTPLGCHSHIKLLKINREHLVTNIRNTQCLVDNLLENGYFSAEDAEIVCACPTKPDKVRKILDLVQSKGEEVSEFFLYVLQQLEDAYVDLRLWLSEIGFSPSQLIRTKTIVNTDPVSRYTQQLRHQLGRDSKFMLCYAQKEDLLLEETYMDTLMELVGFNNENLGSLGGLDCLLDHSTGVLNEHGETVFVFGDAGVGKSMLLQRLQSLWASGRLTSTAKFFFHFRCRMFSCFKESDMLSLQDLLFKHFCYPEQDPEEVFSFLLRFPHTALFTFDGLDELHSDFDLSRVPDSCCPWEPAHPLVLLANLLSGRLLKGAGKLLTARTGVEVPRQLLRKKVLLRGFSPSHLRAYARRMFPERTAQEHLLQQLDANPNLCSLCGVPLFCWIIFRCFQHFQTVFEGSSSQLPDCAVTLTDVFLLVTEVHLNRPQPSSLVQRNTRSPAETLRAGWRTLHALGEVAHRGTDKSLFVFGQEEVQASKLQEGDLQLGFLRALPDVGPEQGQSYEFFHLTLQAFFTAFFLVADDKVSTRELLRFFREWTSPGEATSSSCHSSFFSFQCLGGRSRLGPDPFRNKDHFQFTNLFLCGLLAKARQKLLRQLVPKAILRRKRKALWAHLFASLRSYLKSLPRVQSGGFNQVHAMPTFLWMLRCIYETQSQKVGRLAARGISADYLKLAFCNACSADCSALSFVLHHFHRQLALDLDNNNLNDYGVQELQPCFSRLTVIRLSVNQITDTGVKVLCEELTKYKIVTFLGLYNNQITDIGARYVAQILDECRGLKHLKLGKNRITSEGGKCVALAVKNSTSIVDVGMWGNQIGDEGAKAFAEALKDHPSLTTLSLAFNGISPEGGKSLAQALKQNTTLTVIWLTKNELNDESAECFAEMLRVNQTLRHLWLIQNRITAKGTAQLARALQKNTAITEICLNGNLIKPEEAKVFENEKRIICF

[2] = target: T2, Nucleotide-binding oligomerization domain-containing protein 1 (Homo sapiens, UniProt Q9Y239); test: Antagonist activity at human NOD1 expressed in HEK-Blue cells assessed as decrease in SEAP secretion incubated for 3 hrs followed by C12-iE-DAP stimulation for 20 hrs by spectrophotometry; format: cell-based, HEK-Blue hNOD1
T2 sequence (Q9Y239 whole entry): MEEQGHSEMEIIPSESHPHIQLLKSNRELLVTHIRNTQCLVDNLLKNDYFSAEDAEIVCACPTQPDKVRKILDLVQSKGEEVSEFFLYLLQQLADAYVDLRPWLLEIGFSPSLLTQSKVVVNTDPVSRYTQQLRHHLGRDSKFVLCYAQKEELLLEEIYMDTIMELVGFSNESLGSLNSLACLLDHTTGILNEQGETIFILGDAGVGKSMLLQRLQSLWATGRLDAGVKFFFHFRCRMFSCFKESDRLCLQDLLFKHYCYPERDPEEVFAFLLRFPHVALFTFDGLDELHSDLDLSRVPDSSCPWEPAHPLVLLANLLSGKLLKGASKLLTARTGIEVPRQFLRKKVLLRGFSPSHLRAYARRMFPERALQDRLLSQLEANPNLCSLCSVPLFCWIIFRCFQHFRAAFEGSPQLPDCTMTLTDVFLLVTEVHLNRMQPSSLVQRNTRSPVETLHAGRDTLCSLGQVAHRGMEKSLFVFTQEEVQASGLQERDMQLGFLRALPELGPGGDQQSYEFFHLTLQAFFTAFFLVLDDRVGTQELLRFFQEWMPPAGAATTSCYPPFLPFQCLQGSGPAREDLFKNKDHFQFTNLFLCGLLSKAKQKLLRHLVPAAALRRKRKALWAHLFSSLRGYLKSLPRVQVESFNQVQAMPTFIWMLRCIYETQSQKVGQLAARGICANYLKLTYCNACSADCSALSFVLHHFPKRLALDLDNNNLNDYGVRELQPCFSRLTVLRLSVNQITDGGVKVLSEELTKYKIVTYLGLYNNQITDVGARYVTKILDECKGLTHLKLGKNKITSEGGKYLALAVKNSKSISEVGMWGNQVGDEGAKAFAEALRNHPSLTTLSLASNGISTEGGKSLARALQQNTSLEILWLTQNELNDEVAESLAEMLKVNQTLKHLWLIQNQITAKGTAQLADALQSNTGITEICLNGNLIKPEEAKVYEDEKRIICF

[3] = target: T1, Nucleotide-binding oligomerization domain-containing protein 1 (Mus musculus); test: Antagonist activity at mouse NOD1 expressed in HEK-Blue cells assessed as decrease in SEAP secretion at 1 uM incubated for 3 hrs followed by C12-iE-DAP stimulation for 20 hrs by spectrophotometry relative to control; format: cell-based; conditions: HEK-Blue mNOD1, filed as antagonist, time 23.0 hrs
[4] = target: T3, Nucleotide-binding oligomerization domain-containing protein 1 (Mus musculus, UniProt Q8BHB0); test: Antagonist activity at mouse NOD1 expressed in HEK-Blue cells assessed as decrease in SEAP secretion incubated for 3 hrs followed by C12-iE-DAP stimulation for 20 hrs by spectrophotometry; format: cell-based, HEK-Blue mNOD1
T3 sequence (Q8BHB0 whole entry): T1 sequence (whole entry)

[5] = Solubility of compound in phosphate buffer at pH 7.2 to 7.4; format: physicochemical
[6] = target: Receptor-interacting serine/threonine-protein kinase 2 (Homo sapiens) (UniProt O43353); test: Inhibition of RIP2 (unknown origin) at 10 uM relative to control
[7] = target: Toll-like receptor 4 (Homo sapiens) (UniProt O00206); test: Inhibition of human TLR4 at 1 uM relative to control
[8] = target: T4, Nucleotide-binding oligomerization domain-containing protein 2 (Mus musculus) (UniProt Q8K3Z0); test: Inhibition of mouse NOD2 at 1 uM relative to control
T4 sequence (whole entry): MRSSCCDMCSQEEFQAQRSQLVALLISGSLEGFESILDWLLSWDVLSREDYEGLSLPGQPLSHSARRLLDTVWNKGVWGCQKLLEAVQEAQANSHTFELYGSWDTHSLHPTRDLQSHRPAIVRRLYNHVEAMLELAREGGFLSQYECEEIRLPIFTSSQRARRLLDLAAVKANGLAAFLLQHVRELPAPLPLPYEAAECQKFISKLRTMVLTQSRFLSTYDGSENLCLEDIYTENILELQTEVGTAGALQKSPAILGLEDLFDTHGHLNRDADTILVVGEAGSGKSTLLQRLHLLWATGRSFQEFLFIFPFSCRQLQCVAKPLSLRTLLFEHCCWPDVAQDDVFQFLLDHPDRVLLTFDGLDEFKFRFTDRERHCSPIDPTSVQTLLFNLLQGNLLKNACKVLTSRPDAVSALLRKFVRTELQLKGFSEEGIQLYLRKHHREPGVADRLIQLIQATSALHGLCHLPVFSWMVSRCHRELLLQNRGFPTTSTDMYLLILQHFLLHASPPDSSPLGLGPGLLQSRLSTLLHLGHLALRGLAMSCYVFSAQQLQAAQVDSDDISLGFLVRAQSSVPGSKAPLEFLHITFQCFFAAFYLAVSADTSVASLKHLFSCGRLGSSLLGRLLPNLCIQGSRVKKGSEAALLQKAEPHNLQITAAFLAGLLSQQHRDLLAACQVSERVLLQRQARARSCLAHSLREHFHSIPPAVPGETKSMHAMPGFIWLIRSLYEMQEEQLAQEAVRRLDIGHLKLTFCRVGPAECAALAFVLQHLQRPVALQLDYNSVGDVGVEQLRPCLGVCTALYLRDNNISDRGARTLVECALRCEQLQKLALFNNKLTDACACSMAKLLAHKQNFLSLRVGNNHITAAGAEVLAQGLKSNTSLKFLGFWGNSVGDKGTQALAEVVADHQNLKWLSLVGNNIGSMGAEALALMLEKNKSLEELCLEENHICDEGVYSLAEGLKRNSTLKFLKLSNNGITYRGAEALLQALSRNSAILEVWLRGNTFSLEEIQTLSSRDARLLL

[9] = target: T5, Nucleotide-binding oligomerization domain-containing protein 2 (Homo sapiens, UniProt Q9HC29); test: Inhibition of human NOD2 at 1 uM relative to control
[10] = Metabolic stability in human liver microsomes assessed as half life at 1.25 uM preincubated for 5 mins followed by NADPH addition measured upto 120 mins by LC-MS/MS analysis; format: ADME, Microsome; conditions: time < 125 min
[11] = Metabolic stability in human liver microsomes assessed as intrinsic clearance at 1.25 uM preincubated for 5 mins followed by NADPH addition measured upto 120 mins by LC-MS/MS analysis; format: ADME, Microsome; conditions: time < 125 min, read-out: CLH
[12] = Metabolic stability in mouse liver microsomes assessed as hepatic clearance at 1.25 uM preincubated for 5 mins followed by NADPH addition measured upto 120 mins by LC-MS/MS analysis; format: ADME, Microsome; conditions: time < 125 min
[13] = Metabolic stability in mouse liver microsomes assessed as intrinsic clearance at 1.25 uM preincubated for 5 mins followed by NADPH addition measured upto 120 mins by LC-MS/MS analysis; format: ADME, Microsome; conditions: time < 125 min, read-out: CLH
[14] = Metabolic stability in human liver microsomes assessed as hepatic clearance at 1.25 uM preincubated for 5 mins followed by NADPH addition measured upto 120 mins by LC-MS/MS analysis; format: ADME, Microsome; conditions: time < 125 min
[15] = Metabolic stability in mouse liver microsomes assessed as half life at 1.25 uM preincubated for 5 mins followed by NADPH addition measured upto 120 mins by LC-MS/MS analysis; format: ADME, Microsome; conditions: time < 125 min
[16] = target: T5, Nucleotide-binding oligomerization domain-containing protein 2; test: Antagonist activity at human NOD2 expressed in HEK293 cells assessed as decrease in MDP-stimulated IL-8 release incubated for 24 hrs by fluorescence based assay; format: cell-based
[17] = HEK-Blue mNOD1, filed as antagonist, time 23.0 hrs

T5 sequence (Q9HC29 whole entry, the tested form may be a part): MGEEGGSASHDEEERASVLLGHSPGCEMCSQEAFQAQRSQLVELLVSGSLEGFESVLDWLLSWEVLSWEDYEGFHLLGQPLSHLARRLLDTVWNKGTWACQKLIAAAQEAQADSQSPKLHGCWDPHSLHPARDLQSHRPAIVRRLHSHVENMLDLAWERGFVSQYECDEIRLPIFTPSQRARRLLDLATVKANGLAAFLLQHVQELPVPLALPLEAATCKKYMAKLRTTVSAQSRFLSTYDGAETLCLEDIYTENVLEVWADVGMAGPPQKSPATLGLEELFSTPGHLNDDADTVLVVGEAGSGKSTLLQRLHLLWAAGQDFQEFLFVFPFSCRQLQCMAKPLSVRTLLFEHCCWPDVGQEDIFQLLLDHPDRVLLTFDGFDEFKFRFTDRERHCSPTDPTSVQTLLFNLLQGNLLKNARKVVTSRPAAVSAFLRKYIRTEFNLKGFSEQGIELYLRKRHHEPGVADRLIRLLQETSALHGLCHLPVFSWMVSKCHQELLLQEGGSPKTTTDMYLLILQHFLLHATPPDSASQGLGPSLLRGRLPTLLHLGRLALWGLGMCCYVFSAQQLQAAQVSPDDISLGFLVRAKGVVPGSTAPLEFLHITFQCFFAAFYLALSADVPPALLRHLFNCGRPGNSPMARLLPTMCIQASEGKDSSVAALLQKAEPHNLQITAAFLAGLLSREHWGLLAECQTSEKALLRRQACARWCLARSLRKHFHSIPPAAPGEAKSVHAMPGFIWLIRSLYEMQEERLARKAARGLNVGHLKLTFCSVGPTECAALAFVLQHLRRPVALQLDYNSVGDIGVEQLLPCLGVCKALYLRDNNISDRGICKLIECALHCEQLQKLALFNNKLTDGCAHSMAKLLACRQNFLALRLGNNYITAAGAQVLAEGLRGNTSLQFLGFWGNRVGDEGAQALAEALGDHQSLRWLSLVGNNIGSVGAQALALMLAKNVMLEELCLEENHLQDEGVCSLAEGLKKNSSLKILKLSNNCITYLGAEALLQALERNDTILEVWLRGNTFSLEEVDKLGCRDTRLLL
Sequence of Toll-like receptor 4 (Homo sapiens) (O00206 whole entry, the tested form may be a part): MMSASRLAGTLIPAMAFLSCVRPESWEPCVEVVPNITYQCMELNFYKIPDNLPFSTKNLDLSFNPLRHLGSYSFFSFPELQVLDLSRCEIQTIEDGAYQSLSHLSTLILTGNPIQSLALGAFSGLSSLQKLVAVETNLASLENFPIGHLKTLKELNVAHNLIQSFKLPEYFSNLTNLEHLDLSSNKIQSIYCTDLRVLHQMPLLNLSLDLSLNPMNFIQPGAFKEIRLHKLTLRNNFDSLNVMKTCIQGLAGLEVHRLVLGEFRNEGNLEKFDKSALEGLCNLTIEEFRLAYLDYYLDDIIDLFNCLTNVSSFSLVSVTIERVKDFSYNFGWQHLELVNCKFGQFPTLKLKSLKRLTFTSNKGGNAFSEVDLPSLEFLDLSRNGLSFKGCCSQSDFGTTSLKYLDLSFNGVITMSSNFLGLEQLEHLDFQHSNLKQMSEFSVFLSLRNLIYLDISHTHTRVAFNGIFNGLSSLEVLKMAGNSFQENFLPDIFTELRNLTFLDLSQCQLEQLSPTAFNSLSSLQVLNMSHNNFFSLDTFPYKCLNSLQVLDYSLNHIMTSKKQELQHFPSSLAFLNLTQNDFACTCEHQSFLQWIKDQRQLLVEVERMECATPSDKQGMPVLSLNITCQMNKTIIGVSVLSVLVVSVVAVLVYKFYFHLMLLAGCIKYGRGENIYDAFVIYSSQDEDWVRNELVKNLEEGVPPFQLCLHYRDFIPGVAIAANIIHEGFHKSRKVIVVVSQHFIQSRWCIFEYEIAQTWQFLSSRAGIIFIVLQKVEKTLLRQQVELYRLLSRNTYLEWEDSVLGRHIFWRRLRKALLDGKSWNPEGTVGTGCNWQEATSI
Sequence of Receptor-interacting serine/threonine-protein kinase 2 (Homo sapiens) (O43353 whole entry): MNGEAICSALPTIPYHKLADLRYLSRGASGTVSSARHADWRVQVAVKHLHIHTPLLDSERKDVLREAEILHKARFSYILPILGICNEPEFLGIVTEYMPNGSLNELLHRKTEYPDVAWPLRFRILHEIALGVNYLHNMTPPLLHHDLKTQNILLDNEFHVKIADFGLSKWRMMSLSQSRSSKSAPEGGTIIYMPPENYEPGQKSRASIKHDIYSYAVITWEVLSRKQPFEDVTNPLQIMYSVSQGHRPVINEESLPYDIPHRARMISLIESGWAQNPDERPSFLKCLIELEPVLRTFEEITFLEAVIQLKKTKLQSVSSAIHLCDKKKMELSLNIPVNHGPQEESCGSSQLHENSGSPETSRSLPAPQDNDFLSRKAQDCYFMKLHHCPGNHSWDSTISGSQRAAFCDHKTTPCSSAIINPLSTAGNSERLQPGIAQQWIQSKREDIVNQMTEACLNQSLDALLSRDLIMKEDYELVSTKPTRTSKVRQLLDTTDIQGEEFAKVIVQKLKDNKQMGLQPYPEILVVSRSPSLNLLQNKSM

SMILES	inhibition ([1]; HEK-Blue mNOD1, time 23.0 hrs) [%]	IC50 [2] [nM]	inhibition [3] [%]	IC50 [4] [nM]	also measured
CC(C)NC(=O)CSc1nc2ccc(Cl)cc2c(=O)n1-c1ccc(Cl)c(NS(=O)(=O)c2ccccc2F)c1	< 10	25			
O=c1c2cc(Cl)ccc2nc(Cl)n1-c1ccc(Cl)c(NS(=O)(=O)c2ccccc2F)c1		40	42.7	2630	inhibition [1, 17]: 67.4%
O=c1c2ccncc2nc(Cl)n1-c1ccc(Cl)c(NS(=O)(=O)c2c(F)cccc2F)c1		5.2	83.7	77	solubility [5]: 5.7 µg/mL (≈ 11.8 µM); inhibition [6]: < 10%; inhibition [7]: < 10%; inhibition [8]: < 10%; inhibition [9]: < 10%
C=CC(=O)Nc1nc2ccc(Cl)cc2c(=O)n1-c1ccc(Cl)c(NS(=O)(=O)c2ccccc2F)c1		27		7210	inhibition [1, 17]: 53.3%
O=c1c2cc(Cl)ccc2nc(C(F)(F)F)n1-c1ccc(Cl)c(NS(=O)(=O)c2ccccc2F)c1		68		5900	inhibition [1, 17]: 73.2%
O=c1c2cc(Cl)ccc2nc(SCCOc2ccc(F)cc2)n1-c1ccc(Cl)c(NS(=O)(=O)c2ccccc2F)c1	< 10	746			
Cc1nc2ccc(Cl)cc2c(=O)n1-c1ccc(Cl)c(N2Cc3ccccc3S2(=O)=O)c1	14.5	11200			
O=c1c2cc(Cl)cnc2nc(Cl)n1-c1ccc(Cl)c(NS(=O)(=O)c2ccccc2F)c1			84.3	187	half-life at 1.25 µM [10]: 28 min; microsomal CLint at 1.25 µM [11]: 49.4 µL/min/mg; CLhep predicted at 1.25 µM [12]: 73.2 mL/min/kg; microsomal CLint at 1.25 µM [13]: 99.9 µL/min/mg; CLhep predicted at 1.25 µM [14]: 15.2 mL/min/kg; half-life at 1.25 µM [15]: 13.9 min
Nc1nc2ccc(Cl)cc2c(=O)n1-c1ccc(Cl)c(NS(=O)(=O)c2ccccc2F)c1	27.3	44			
Cc1nc2ccc(NC(=O)c3cccc(NS(=O)(=O)c4ccc(F)cc4)c3)cc2s1					IC50 [16]: > 50000 nM
O=C(CSc1nc2ccc(Cl)cc2c(=O)n1-c1ccc(Cl)c(NS(=O)(=O)c2ccccc2F)c1)Nc1ccccc1	< 10	44			
CS(=O)(=O)c1ccc2nc(Cl)n(-c3ccc(Cl)c(NS(=O)(=O)c4ccccc4C#N)c3)c(=O)c2c1				66	solubility [5]: 34.2 µg/mL (≈ 62.2 µM); half-life at 1.25 µM [15]: 20.6 min
O=c1c2cc(Cl)ncc2nc(Cl)n1-c1ccc(Cl)c(NS(=O)(=O)c2ccccc2F)c1		1.8	85.6	118	half-life at 1.25 µM [10]: 115 min; microsomal CLint at 1.25 µM [11]: 12 µL/min/mg; CLhep predicted at 1.25 µM [12]: 48 mL/min/kg; microsomal CLint at 1.25 µM [13]: 26.2 µL/min/mg; CLhep predicted at 1.25 µM [14]: 8.3 mL/min/kg; half-life at 1.25 µM [15]: 53 min
O=c1c2nc(Cl)ccc2nc(Cl)n1-c1ccc(Cl)c(NS(=O)(=O)c2ccccc2F)c1		11	84.6	193	half-life at 1.25 µM [10]: 104 min; microsomal CLint at 1.25 µM [11]: 13.4 µL/min/mg; CLhep predicted at 1.25 µM [12]: 54.7 mL/min/kg; microsomal CLint at 1.25 µM [13]: 35.4 µL/min/mg; CLhep predicted at 1.25 µM [14]: 8.9 mL/min/kg; half-life at 1.25 µM [15]: 39.1 min

Reference: ChEMBL document CHEMBL6074678, “Selectively Antagonizing the NOD1-Mediated Inflammatory Signaling Pathway Mitigates the Gastric Inflammation Induced by Helicobacter pylori Infection” (J Med Chem, 2024)
